In PubChem BioAssay AID1963442 (Molecular Pharmacology Branch, DTP, NCI, 2024):
Several values for one entry are separate records, joined by “and”; a condition that tells them apart may be missing. Identical values can stand only once.

Tested on: MPNST complex spheroid with HUVEC/MSC, growth, % test/control
Test: Anticancer human tumor MPNST cell line growth inhibition [Asc];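 further: compounds left on spheroids for seven days before reading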
Settings: for viability, T/C: stronger effect = lower value
In short: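 Spheroid model: tumor line + HUVEC + hMSC. Single agents and combinations; top conc. at/near clinical Cmax (10 microM if undetermined), half-log dilutions. DMSO stocks at 800-fold test concentration.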

[1] = curve of first compound, second compound 0.1 µM
[2] = curve of first compound, second compound 0.316 µM
[3] = curve of first compound, second compound 1 µM

Cc1nc(N2CCC3(CC2)COC(C)C3N)c(CO)nc1Sc1ccnc(N)c1Cl (stereo not given) + CNC(C)C(=O)NC1CN(S(=O)(=O)c2cccc(S(=O)(=O)N3CCC4CCC(C(=O)NC(c5ccccc5)c5ccccc5)N4C(=O)C(NC(=O)C(C)NC)C3)c2)CCC2CCC(C(=O)NC(c3ccccc3)c3ccccc3)N2C1=O
IC50 (curve of first compound, second compound 0.00316 µM): 105 nM
IC50 (curve of first compound, second compound 0.01 µM): 125 nM
IC50 (curve of first compound, second compound 0.0316 µM): 119 nM
IC50 [1]: 157 nM
IC50 [2]: 647 nM
IC50 [3]: 300 nM
viability, T/C (second compound 0.00316 µM, first compound 0.00949 µM): 90.5%
viability, T/C (second compound 0.00316 µM, first compound 0.03 µM): 56.4%
viability, T/C (second compound 0.00316 µM, first compound 0.0949 µM): 57%
viability, T/C (second compound 0.00316 µM, first compound 0.3 µM): 41.5%
viability, T/C (second compound 0.00316 µM, first compound 0.949 µM): 62.1%
viability, T/C (second compound 0.00316 µM, first compound 3 µM): 30.6%
viability, T/C (second compound 0.01 µM, first compound 0.00949 µM): 103%
viability, T/C (second compound 0.01 µM, first compound 0.03 µM): 54%
viability, T/C (second compound 0.01 µM, first compound 0.0949 µM): 60.7%
viability, T/C (second compound 0.01 µM, first compound 0.3 µM): 51.6%
viability, T/C (second compound 0.01 µM, first compound 0.949 µM): 39.5%
viability, T/C (second compound 0.01 µM, first compound 3 µM): 25%
viability, T/C (second compound 0.0316 µM, first compound 0.00949 µM): 114%
viability, T/C (second compound 0.0316 µM, first compound 0.03 µM): 59.2%
viability, T/C (second compound 0.0316 µM, first compound 0.0949 µM): 65.9%
viability, T/C (second compound 0.0316 µM, first compound 0.3 µM): 40.1%
viability, T/C (second compound 0.0316 µM, first compound 0.949 µM): 42.8%
viability, T/C (second compound 0.0316 µM, first compound 3 µM): 40%
viability, T/C (second compound 0.1 µM, first compound 0.00949 µM): 68.9%
viability, T/C (second compound 0.1 µM, first compound 0.03 µM): 66.1%
viability, T/C (second compound 0.1 µM, first compound 0.0949 µM): 52.5%
viability, T/C (second compound 0.1 µM, first compound 0.3 µM): 45.8%
viability, T/C (second compound 0.1 µM, first compound 0.949 µM): 32.6%
viability, T/C (second compound 0.1 µM, first compound 3 µM): 28.8%
viability, T/C (second compound 0.316 µM, first compound 0.00949 µM): 60.8%
viability, T/C (second compound 0.316 µM, first compound 0.03 µM): 80.8%
viability, T/C (second compound 0.316 µM, first compound 0.0949 µM): 60.3%
viability, T/C (second compound 0.316 µM, first compound 0.3 µM): 57.4%
viability, T/C (second compound 0.316 µM, first compound 0.949 µM): 47%
viability, T/C (second compound 0.316 µM, first compound 3 µM): 31.7%
viability, T/C (second compound 1 µM, first compound 0.00949 µM): 71.5%
viability, T/C (second compound 1 µM, first compound 0.03 µM): 67.8%
viability, T/C (second compound 1 µM, first compound 0.0949 µM): 49.9%
viability, T/C (second compound 1 µM, first compound 0.3 µM): 48.1%
viability, T/C (second compound 1 µM, first compound 0.949 µM): 52.9%
viability, T/C (second compound 1 µM, first compound 3 µM): 28.6%

Cc1c(S(C)(=O)=O)c(-c2cc(F)cc(N3CCN(c4ccc(NS(=O)(=O)c5ccc(NC(CCN6CCC(C(=O)OCCCP(=O)(O)O)CC6)CSc6ccccc6)c(S(=O)(=O)C(F)(F)F)c5)cc4)CC3)c2)c(-c2ccc(Cl)cc2)n1C(C)C (stereo not given)
IC50 (compound alone, run of 10/11/2022): > 10000 nM

O=C(c1cc(Cc2n[nH]c(=O)c3ccccc23)ccc1F)N1CCN(C(=O)C2CC2)CC1 + CCN1C(C(=O)NC23CCC(C(=O)O)(CC2)CC3)C(c2cccc(Cl)c2F)C2(C(=O)Nc3cc(Cl)ccc32)C12CCCCC2
IC50 (curve of first compound, second compound 0.03 µM): > 10000 nM
IC50 (curve of first compound, second compound 0.0949 µM): > 10000 nM
IC50 (curve of first compound, second compound 0.3 µM): > 10000 nM
IC50 (curve of first compound, second compound 0.949 µM): > 10000 nM
IC50 (curve of first compound, second compound 3 µM): > 10000 nM
viability, T/C (second compound 0.03 µM, first compound 0.0316 µM): 122%
viability, T/C (second compound 0.03 µM, first compound 0.1 µM): 113%
viability, T/C (second compound 0.03 µM, first compound 0.316 µM): 101%
viability, T/C (second compound 0.03 µM, first compound 1 µM): 80.6%
viability, T/C (second compound 0.03 µM, first compound 3.16 µM): 65.8%
viability, T/C (second compound 0.03 µM, first compound 10 µM): 50.1%
viability, T/C (second compound 0.0949 µM, first compound 0.0316 µM): 141%
viability, T/C (second compound 0.0949 µM, first compound 0.1 µM): 115%
viability, T/C (second compound 0.0949 µM, first compound 0.316 µM): 121%
viability, T/C (second compound 0.0949 µM, first compound 1 µM): 106%
viability, T/C (second compound 0.0949 µM, first compound 3.16 µM): 97.9%
viability, T/C (second compound 0.0949 µM, first compound 10 µM): 61.5%
viability, T/C (second compound 0.3 µM, first compound 0.0316 µM): 122%
viability, T/C (second compound 0.3 µM, first compound 0.1 µM): 115%
viability, T/C (second compound 0.3 µM, first compound 0.316 µM): 117%
viability, T/C (second compound 0.3 µM, first compound 1 µM): 93.1%
viability, T/C (second compound 0.3 µM, first compound 3.16 µM): 100%
viability, T/C (second compound 0.3 µM, first compound 10 µM): 71.4%
viability, T/C (second compound 0.949 µM, first compound 0.0316 µM): 111%
viability, T/C (second compound 0.949 µM, first compound 0.1 µM): 113%
viability, T/C (second compound 0.949 µM, first compound 0.316 µM): 118%
viability, T/C (second compound 0.949 µM, first compound 1 µM): 100%
viability, T/C (second compound 0.949 µM, first compound 3.16 µM): 100%
viability, T/C (second compound 0.949 µM, first compound 10 µM): 78.2%
viability, T/C (second compound 3 µM, first compound 0.0316 µM): 105%
viability, T/C (second compound 3 µM, first compound 0.1 µM): 107%
viability, T/C (second compound 3 µM, first compound 0.316 µM): 116%
viability, T/C (second compound 3 µM, first compound 1 µM): 90.9%
viability, T/C (second compound 3 µM, first compound 3.16 µM): 88.8%
viability, T/C (second compound 3 µM, first compound 10 µM): 72.2%

C=CC(=O)N1CCN(c2nc(=O)n(-c3c(C)ccnc3C(C)C)c3nc(-c4c(O)cccc4F)c(F)cc23)C(C)C1 (stereo not given) + Cc1c(S(C)(=O)=O)c(-c2cc(F)cc(N3CCN(c4ccc(NS(=O)(=O)c5ccc(NC(CCN6CCC(C(=O)OCCCP(=O)(O)O)CC6)CSc6ccccc6)c(S(=O)(=O)C(F)(F)F)c5)cc4)CC3)c2)c(-c2ccc(Cl)cc2)n1C(C)C
IC50 [1]: > 10000 nM
IC50 [2]: > 10000 nM
IC50 [3]: > 10000 nM
IC50 (curve of first compound, second compound 3.16 µM): > 10000 nM
IC50 (curve of first compound, second compound 10 µM): > 10000 nM
viability, T/C (second compound 0.1 µM, first compound 0.0316 µM): 71.9%
viability, T/C (second compound 0.1 µM, first compound 0.1 µM): 74.7%
viability, T/C (second compound 0.1 µM, first compound 0.316 µM): 84.2%
viability, T/C (second compound 0.1 µM, first compound 1 µM): 96.2%
viability, T/C (second compound 0.1 µM, first compound 3.16 µM): 93.4%
viability, T/C (second compound 0.1 µM, first compound 10 µM): 105%
viability, T/C (second compound 0.316 µM, first compound 0.0316 µM): 79.4%
viability, T/C (second compound 0.316 µM, first compound 0.1 µM): 93.8%
viability, T/C (second compound 0.316 µM, first compound 0.316 µM): 76.7%
viability, T/C (second compound 0.316 µM, first compound 1 µM): 88.9%
viability, T/C (second compound 0.316 µM, first compound 3.16 µM): 85.7%
viability, T/C (second compound 0.316 µM, first compound 10 µM): 108%
viability, T/C (second compound 1 µM, first compound 0.0316 µM): 90.8%
viability, T/C (second compound 1 µM, first compound 0.1 µM): 85.1%
viability, T/C (second compound 1 µM, first compound 0.316 µM): 89.8%
viability, T/C (second compound 1 µM, first compound 1 µM): 89.9%
viability, T/C (second compound 1 µM, first compound 3.16 µM): 101%
viability, T/C (second compound 1 µM, first compound 10 µM): 118%
viability, T/C (second compound 3.16 µM, first compound 0.0316 µM): 66.5%
viability, T/C (second compound 3.16 µM, first compound 0.1 µM): 88%
viability, T/C (second compound 3.16 µM, first compound 0.316 µM): 84.6%
viability, T/C (second compound 3.16 µM, first compound 1 µM): 99%
viability, T/C (second compound 3.16 µM, first compound 3.16 µM): 100%
viability, T/C (second compound 3.16 µM, first compound 10 µM): 99%
viability, T/C (second compound 10 µM, first compound 0.0316 µM): 83.5%
viability, T/C (second compound 10 µM, first compound 0.1 µM): 91.2%
viability, T/C (second compound 10 µM, first compound 0.316 µM): 83.8%
viability, T/C (second compound 10 µM, first compound 1 µM): 97.1%
viability, T/C (second compound 10 µM, first compound 3.16 µM): 115%
viability, T/C (second compound 10 µM, first compound 10 µM): 115%

C=C(F)C(=O)N1CCN(c2nc(OCC3CCCN3C)nc3c2CCN(c2cccc4cccc(Cl)c24)C3)CC1CC#N (stereo not given)
viability, T/C (compound 0.0316 µM): 65.6% and 93.2% and 99.3%
viability, T/C (compound 0.1 µM): 75% and 68.3% and 86.5%
viability, T/C (compound 0.316 µM): 90.8% and 73% and 75.3%
viability, T/C (compound 1 µM): 85% and 68.2% and 94.8%
viability, T/C (compound 3.16 µM): 48.5% and 60.2% and 82.2%
IC50 (curve of compound): 2990 nM and > 10000 nM

CNC(C)C(=O)NC1CN(S(=O)(=O)c2cccc(S(=O)(=O)N3CCC4CCC(C(=O)NC(c5ccccc5)c5ccccc5)N4C(=O)C(NC(=O)C(C)NC)C3)c2)CCC2CCC(C(=O)NC(c3ccccc3)c3ccccc3)N2C1=O (stereo not given)
IC50 (curve of compound): > 1000 nM
